Experimental data from patent publication US9155751B2, “Solution for tissue adhesion prevention and method for tissue adhesion prevention” (THE UNIVERSITY OF TOKYO, priority 2005, dated 2015).
Where “and” joins values, the source holds several entries; their conditions need not be identical. Equal entries are not always repeated. Entries after “also recorded” stand apart in the source; their conditions may differ.

Assays:
HepG2 cells = assay: HepG2 cell survival after air-dry (neutral red absorbance); format: cell-based, human; conditions: for cell survival rate: activated with sample solution 37 degrees C 1 hour, air-dry 3 minutes, control plate without air-dry = 100%; for cell survival rate in control plates (effect of each reagent on cells): air-dry not performed, control plate for PBS (+) = 100%; for cell protection effect: plates air-dried for 3 minutes
Protocol: As cells, HepG2 cells (human hepatoma-derived cell lines) were used.
For all reagents other than HepG2 cells, AA-2G, trehalose, DMEM media, FCS, neutral red, reagent grade chemicals were used. In addition, as sample solution in which HepG2 cells were activated, 4 kinds of solution; PBS (+) solution, 2.5 mM AA-2G solution, 132 mM trehalose solution, 2.5 mM AA-2G+132 mM trehalose mixed solution were prepared.
A reagent ascorbic acid-2-glucoside (AA2G; Hayashihara Biochemical Labs., Inc.) was dissolved in distilled water to obtain 2.5 mM AA-2G solution. And a highly purified hydrated crystal trehalose in powder (Reagent trehalose; Hayashihara Biochemical Labs., Inc.) was dissolved in distilled water to obtain 132 mM trehalose solution. The reagents ascorbic acid-2-glucoside and the highly purified hydrated crystal trehalose in powder were dissolved in distilled water to obtain 2.5 mM AA-2G+132 mM trehalose mixed solution. Then, pH and osmolarity of these 4 kinds of sample solutions were adjusted. Adjustment of osmolarity of 2.5 mM AA-2G solution, 132 mM trehalose solution, 2.5 mM AA-2G+132 mM trehalose mixed solution was performed by adjusting with sodium chloride of PBS (+) to be isotonic.
The pH and osmolarity of each sample after adjustment were as follows; pH 7.2 and 279 mOsm for PBS (+) solution, pH 6.8 and 265 mOsm for 2.5 mM AA-2G solution, pH 7.2 and 283 mOsm for 132 mM trehalose solution and pH 7.0 and 282 mOsm for 2.5 mM AA-2G+132 mM trehalose mixed solution.
Then, HepG2 cells were seeded with 4×10^4 cells/well each to four 12-well plates, and incubated in DMEM media (Nissui Pharmaceutical Co., Ltd) containing 10% FCS (Gibco) for 4 days. Then the DMEM media containing 10% FCS were replaced with 4 kinds of sample solutions; PBS (+) solution, 2.5 mM AA-2G solution, 132 mM trehalose solution, 2.5 mM AA-2G+132 mM trehalose mixed solution, and activated at 37 degrees C. for 1 hour.
Two control plates and two test plates were prepared for cells activated with 4 kinds of sample solutions, respectively. For each two test plates, one plate was air-dried for 5 minutes and other plate was air-dried for 3 minutes. The two control plates were not air-dried.
Then, cells of each plate was replaced with no serum DMEM media and incubated at 37 degrees C. for 1 hour. After replacing with 0.02% neutral red (Wako Pure Chemical Industries, Ltd, hereinafter referred to NR), they were activated at 37 degrees C. for 40 minutes. After removal of NR solution and addition of PBS (+), they were left to stand at 37 degrees C. for 40 minutes, PBS (+) was removed and they were air-dried for 5 minutes. They were added NR extracts and left to stand at 37 degrees C. for 10 minutes, then each sample was distributed over 96-well plate and the absorbance at the wavelength of 570 nm was measured.
The absorbance of the control plates to which air-dry was not performed was considered as cell survival rate of 100%, and the cell survival rate of the test plates to which air-dry was performed for 3 minutes was calculated. The results are shown in the graph indicating changes in cell survival rate by air-dry in FIG. 1.
Also, the cell survival rates of control plates for each sample solution to which air-dry was not performed were calculated. The results are shown in the graph indicating the effect of each reagent on cells in FIG. 2.

[1] = tested on: abdominal adhesion model using rabbits; assay: Rabbit abdominal adhesion model by desiccating intestine surface during abdominal surgery (Example 2); format: in vivo, New Zealand White rabbits; conditions: for Clinical findings: 2% trehalose solution sprayed on whole intestines several times during laparotomy
Protocol: In this example, abdominal adhesion model was prepared using rabbits by desiccating surface of intestines during abdominal surgery, and the preventive effect of intestine adhesion by trehalose was discussed.
As trehalose, powder trehalose (Reagent trehalose; Hayashihara Biochemical Labs., Inc.) and ^+NaCl were dissolved in sterile distilled water of 250 mL as 2%; solution, sterilized by filtration with filter (Millex; Millpore Co., Bedford) and poured to sterile container and stored at room temperature. As test animals, five female New Zealand White rabbits weighing 2.85 to 3.2 kg aged of 14 weeks (Std:NZW, Japan SLC, Inc., Shizuoka) were used. The rabbits were kept in animal laboratory (room temperature of 24+/−1 degrees C., humidity of 30 to […]) in The University of Tokyo, Graduate School of Agricultural and Life Sciences Veterinary Medical Center. The rabbits were acclimatized for 1 week after purchase, and during this period blood test (complete blood count, BUN, Cre, ALT, ALP) and general x-ray test were performed to confirm that abnormality was not present. The experiment of this example was performed according to the Manual of animal experiment of University of Tokyo.
(§1) The experiment of this example was performed as follows.
(§2) As anesthesia, 5 mg/kg of ketamine (KETALAL 50; Sankyo Lifetech Co., Ltd., Tokyo) and 0.1 mg/kg of medetomidine (DOMITOL; Meiji Seiyaku Co., Ltd., Tokyo) were intramuscularly injected as preoperative medication, and after intubation maintained with isoflurane (ISOFLU; Dainippon Pharmaceutical Co., Ltd., Osaka). Before operation, 10 mg/kg of enrofloxacin (BAYTRIL; Bayer Medical Ltd., Tokyo) was subcutaneously administered as antibiotics, and during operation 10 mL/kg/hr of lactated Ringer's solution (FUSO; Fuso Pharmaceutical Industries, Ltd., Osaka) was intravenously administered, After operation, single dose of 20 μg/kg of buprenorphine (LEPETAN; Otsuka Pharmaceutical Co., Ltd., Tokyo) as analgesics was subcutaneously administered. During anesthesia, ECG, ETCO2 and SpO2 were monitored and maintained within their normal variations.
Three rabbits among the five rabbits were randomized to the control group, and the other two rabbits were classified into the trehalose group. For the five rabbits, after disinfection of operative field, abdominal median incision was performed and intestines were exposed as far as possible and serum was wiped with gauze. For control group (three rabbits) they were left desiccated and for trehalose group (two rabbits) whole intestines were sprayed with trehalose for several times. During this period, ovariohysterectomy was performed according to given method. The time period of laparotomy was 30 to 60 minutes for both groups. The 3-0 monofilament nylon fiber (Bear surgical suture; Bear Medic Corporation, Chiba) was used for ovariohysterectomy and closure of abdominal wall, and the 4-0 monofilament polyglyconate fiber (MAXON; Syneture Co., Ltd., Connecticut) was used for subcutaneous tissues and stapler (Manipler AZ-35W; Mani Inc., Tochigi) was used for skin suture. After operation, general condition and wounds were observed and they were killed by overdose of pentobarbital after 2 weeks. The adhesion status in peritoneal cavity was macroscopically observed and recorded as well as tissues of adhesion sites were removed as pathohistological test material and fixed in formalin.
The clinical findings after 2 weeks and the macroscopic findings of adhesion status after laparotomy of each case are shown in Table 1.

[2] = tested on: abdominal adhesion model using rabbits; assay: Rabbit abdominal adhesion model by desiccating intestine surface during abdominal surgery (Example 3); format: in vivo, New Zealand White rabbits; parameters: key to Adhesion sites: greater omentum - rectum / Adhesion sites: greater omentum - stomach / Adhesion sites: greater omentum - small intestine / Adhesion sites: small intestine - rectum / Adhesion sites: abdominal wall - bladder / Adhesion sites: abdominal wall - fat / Adhesion sites: colon-fat / Adhesion sites: jejunum - abdominal wall / Adhesion sites: cecum - colon: non-adhesion: −; Adhesions of mild degree (abruption enabled): +; Adhesions of severe degree (abruption enabled): ++; Score-Total: scale not given here
Protocol: In this example, abdominal adhesion model was prepared using rabbits by desiccating surface of intestines during abdominal surgery, and the preventive effect on intestine adhesion by trehalose was discussed.
As trehalose, powder trehalose (Reagent trehalose; Hayashihara Biochemical Labs., Inc.) were dissolved in sterile distilled water of 250 mL as 7% solution, sterilized by filtration with filter (Millex; Millpore Co., Bed ford) and poured to sterile container and stored at room temperature.
As test animals, 20 female New Zealand White rabbits weighing 2.6 to 3.2 kg aged of 14 weeks (Std:NZW, Japan SLC, Inc., Shizuoka) were used. The rabbits were kept in animal laboratory (room temperature of 24+/−1 degrees C., humidity of 30 to 70%) in The University of Tokyo, Graduate School of Agricultural and Life Sciences Veterinary Medical Center. The rabbits were acclimatized for 1 week after purchase, and during this period blood test (complete blood count, BUN, Cre, ALT, ALP) and general x-ray test were performed to confirm that abnormality was not present. The experiment of this example was performed according to the Manual of animal experiment of The University of Tokyo.
as §1
as §2, with “Seiyaku Ca,” for “Seiyaku Co.,”, “isoflurane (SOFLU” for “isoflurane (ISOFLU;”, “intravenously administered.” for “intravenously administered,”, “administered.” for “administered. During anesthesia, ECG, ETCO2 and SpO2 were monitored and maintained within their normal variations.”
During anesthesia, ECG, ETCO2 and SpO2 were monitored and maintained within their normal variations.
For the 20 rabbits, after disinfection of operative field, abdominal median incision was performed and intestines were exposed as far as possible and serum was wiped with gauze. Total ovariohysterectomy performed according to given method. Four section of ovarion arteries and veins were severed after being ligated with 4-0 mono filament polyglyconate suture (MAXON; Syneture Co., Ltd., Connecticut). Also, uterovaginal stump were sutured with 5-0 mono filament polyglyconate suture (MAXON; Syneture Co., Ltd., Connecticut), the 3-0 mono filament polyglyconate suture (MAXON; Syneture CO., Ltd., Connecticut) was used for closure of abdominal wall, and the 4-0 mono filament polyglyconate suture (MAXON; Syneture Co., Ltd., Connecticut) was used for subcutaneous tissues and stapler (ManiplerAZ-35W; Mani Inc., Tochigi) was used for skin suture.
Ten rabbits among the twenty rabbits were randomized to the control group, and the other ten rabbits were classified into the trehalose group.
The control group (10 rabbits) was left desiccated. The time period of laparotomy was 60 minutes.
For the trehalose group, trehalose solution was sprayed over the whole abdominal cavities every 15 minutes (0 minutes, 15 minutes, 30 minutes, 45 minutes, 60 minutes after starting the operation). The time period of laparotomy was 60 minutes. After operation, general condition and wounds were observed and rabbits were euthanized by excessive administration of pentobarbital two weeks after the operations.
The adhesion status in peritoneal cavity was macroscopically observed and recorded as well as tissues of adhesion sites were removed as pathohistological test materials and fixed in formalin. The clinical findings after 2 weeks and the macroscopic findings of adhesion status after laparotomy of each case are shown in Table 2.

[3] = 2% trehalose solution sprayed on whole intestines, macroscopic, 2 weeks after operation, individual rabbits
[4] = 7% trehalose solution sprayed every 15 minutes, 60 min laparotomy, 2 weeks after, individual rabbits No. 1-10

SMILES: O=C1O[C@H]([C@@H](O)CO)C(O)=C1O[C@H]1O[C@H](CO)[C@@H](O)[C@H](O)[C@H]1O [2.5 mM AA-2G solution, ascorbic acid-2-glucoside]
- cell survival rate (HepG2 cells): 61.8%
- cell survival rate in control plates (effect of each reagent on cells) (HepG2 cells): 101.6% and 101.5%
- cell protection effect (HepG2 cells): the cell protection effect was not observed

SMILES: OC[C@H]1O[C@H](O[C@H]2O[C@H](CO)[C@@H](O)[C@H](O)[C@H]2O)[C@H](O)[C@@H](O)[C@@H]1O [Trehalose, trehalose]
- cell survival rate (HepG2 cells): 70.7%
- cell survival rate in control plates (effect of each reagent on cells) (HepG2 cells; listed as 132 mM trehalose solution): 97.6% and 97.7%
- cell protection effect (HepG2 cells): the cell protection effect was observed
- Clinical findings ([1]; 2 weeks after operation, individual rabbits): Partial dehiscence; also recorded: No abnormal findings
- Clinical findings ([1]; 2 weeks after operation, individual rabbits, listed as trehalose): a part of skin suture site was removed and showed ulcer in 1 case
- Findings after laparotomy: Adhesion of stump of uterus [1, 3]: Present
- Findings after laparotomy: Adhesion sites in intestines [1, 3]: 2 sites of adhesion and No significant
- Findings after laparotomy: Adhesion sites in intestines ([1]; 2% trehalose solution sprayed on whole intestines, macroscopic, 2 weeks after operation, individual rabbits, listed as trehalose): 2 sites of mild adhesion were suspected in 1 rabbit and no significant adhesion was macroscopically observed
- prevention of abdominal adhesion due to desiccation (conclusion) ([1]; spray of 2% trehalose solution): would be effective for prevention of abdominal adhesion due to desiccation
- cases with adhesions of mild and severe degree between abdominal organs ([2]; 7% trehalose solution spray, 10 rabbits, control 6 of 10): 2 of 10
- adhesion scores between organs (group) ([2]; 7% trehalose solution spray, 10 rabbits, control group +16): +3
- Adhesion sites: abdominal wall - bladder [2, 4]: −
- Adhesion sites: abdominal wall - fat [2, 4]: −
- Adhesion sites: cecum - colon [2, 4]: + and − (9×)
- Adhesion sites: colon-fat [2, 4]: −
- Adhesion sites: greater omentum - rectum [2, 4]: −
- Adhesion sites: greater omentum - small intestine [2, 4]: −
- Adhesion sites: greater omentum - stomach [2, 4]: −
- Adhesion sites: jejunum - abdominal wall [2, 4]: −
- Adhesion sites: small intestine - rectum [2, 4]: − (9×) and ++
- Score-Total ([2]; adhesion score per rabbit, 7% trehalose solution spray, individual rabbits No. 1-10): 1 and 0 (8×) and 2
- prevention of abdominal adhesion due to desiccation (conclusion) ([2]; spray of 7% trehalose solution): can obviously prevent and reduce adhesions
- prevention ratio ([2]; trehalose group versus control group adhesion score, Wilcoxon rank-sum test p<0.05): 81%
